Assay results: patent US20020055541A1, “Compositions containing hypotriglyceridemically active stilbenoids” (Shaman Pharmaceuticals, Inc., priority 2000, published 2002)

Experiments:
[1] = reported by Arichi et al., Chem. Pharm. Bull. 30(5) 1766-1770 (1982); cited from earlier work
[2] = reported by Inamori et al., Chem. Phar. Bull. 33(7):2904-09 (1985); cited from earlier work
[3] = Body weight in fat fed, STZ treated rats; format: in vivo, rat; settings: 250 mg/kg q.d., FIG. 3
Method: (§1) FIG. 3 is a line graph showing the mean body weight […] in fat fed, STZ treated rats administered with GELUCIRE™ vehicle only; and 3-hydroxy-4-(3-methyl-2-butenyl)-5-methoxystilbene-2-carboxylic acid (Compound A). -O- represents vehicle; and -▪- represents Compound A administered at 250 mg/kg q.d. Animals were administered the vehicle and compounds at 24, 48, 72 and 96 h, and […] were measured at 0, 30, 51, 54, 75 and 80 hours after the oral administration. All data points N=8. *P<0.05 (analysis of variance (ANOVA), one factor).
(§2) Male Sprague Dawley rats arrival from Charles River Laboratories, Hollister, Calif., were fed a high fat (20% by weight) diet (TD 78463) obtained from Harlan Teklad, Madison, Wis., which was stored at 4° C. prior to use. Administration of a high fed diet is a well-known method of inducing hypertriglyceridemia in rats.
(§3) Compound A formulations were prepared fresh daily. The appropriate amount of Compound A in GELUCIRE™ was administered by oral gavage at a volume of 2.5 ml/kg of body weight. Animals were fasted at 8:00 am each day.

[4] = test system: fat fed, STZ treated male Sprague Dawley rats; test: Serum triglyceride levels in fat-fed STZ treated rats (model of hypertriglyceridemia); format: in vivo, rat
Text: This example illustrates the effectiveness of the stilbenoids of formula (I) in reducing serum triglyceride levels in fat-fed STZ treated male Sprague Dawley rats, i.e., an art-recognized model of hypertriglyceridemia.
This example illustrates the effectiveness of the stilbenoids of formula (I), e.g. longistyline A-2-carboxylic acid (Compound A) in reducing serum triglyceride levels in fat fed, STZ treated male Sprague Dawley rats, i.e., an art recognized model of hypertriglyceridemia. […]
Blood samples from tail snips bleeds were collected six hours after the dose on day one, and three (3) and six (6) hours after the administration of the dose on days 2 through 4 into M brand (Becton Dickinson, Franklin Lakes, NJ) serum separator tubes, and centrifuged at 12,000 rpm for 10 minutes. Serum was removed and triglyceride levels were measured using enzymatic […] methods (M. W. McGowan, et al., Clin. Chem. 29, 538 (1983) and P Trinder, Ann. Clin. Biochem. 6, 24 (1969)) using Sigma Diagnostic Kits, Sigma Chemical Company, St. Louis, Mo.
Triglyceride levels are expressed as the mean +SEM. Data were analyzed by one-way analysis of variance (ANOVA), followed by post-hoc Fisher's protected least squares difference (PLSD) tests. […]

[5] = Food consumption in fat fed, STZ treated rats; format: in vivo, rat; settings: 250 mg/kg q.d., FIG. 4
Method: as §1, with “FIG. 4” for “FIG. 3”, “mean food consumption” for “mean body weight”
as §2, §3

Q: Which Serum triglyceride levels [1] does the source give for OC[C@H]1OC(Oc2c(O)cc(O)cc2C=Cc2ccc(O)cc2)[C@H](O)[C@@H](O)[C@@H]1O (stereo partly drawn) [2,3,5,4′-tetrahydroxy stilbene-2-O-D-glucoside] here?
A: The Serum triglyceride levels was “reduce”.

Q: For Oc1cc(O)cc(C=Cc2ccc(O)c(O)c2)c1 [3,3′,4,5′-tetrahydroxystilbene], which Antifungal activity [2] is on record?
A: Its Antifungal activity is “strong”.

Q: For COc1cc(/C=C/c2ccccc2)c(C(=O)O)c(O)c1CC=C(C)C [Compound A, 3-hydroxy-4-(3-methyl-2-butenyl)-5-methoxystilbene-2-carboxylic acid], which “Gain in rat body weight over the course of treatment” value [3] is on record?
A: The value was “normal and similar among the treatment groups”.

Q: And the “Serum triglyceride (TG) levels vs vehicle only, at each of the time points” value ([4]; 250 mg/kg body weight q.d. oral gavage in GELUCIRE vehicle, fat fed STZ rats, N=8, p<0.05, FIG. 2)?
A: The value was “significantly lower”.

Q: And the “Mean TG levels vs GELUCIRE vehicle group, compared at individual sampling times” value ([4]; 250 mg/kg body weight q.d., from day 2 through the end of treatment)?
A: The value was “significantly lower”.

Q: And the “Food intake (daily mean food consumption)” value [5]?
A: Its value is “not effected by the treatments”.

Q: Which Liver lipid levels [1] does the source give for OC[C@H]1O[C@@H](Oc2cc(O)cc(/C=C/c3ccc(O)cc3)c2)[C@H](O)[C@@H](O)[C@@H]1O [Piceid, 3,4′,5-trihydroxystilbene-3-O-β-D-glucopyranoside] here?
A: The Liver lipid levels was “lower”.

Q: What about the Serum triglyceride levels [1] of the same molecule?
A: The Serum triglyceride levels was “lower”.
